Test results from patent US9365582B2, “Macrocyclic inhibitors of hepatitis C virus” (Janssen Sciences Ireland UC, priority 2006, dated 2016).

Columns and labels:
HCV NS3/4A protease = HCV NS3/4A protease (Hepatitis C virus genotype 1a (isolate H77) (HCV), UniProt P27958); assay: Inhibition assay (enzymatic assay) of full-length NS3 protease with NS4A cofactor; assay type: biochemical; conditions: full-length NS3 1 nM, 25 μM NS4A cofactor, 0.5 μM depsipeptide substrate, 30° C., competitive inhibition model
HCV NS3/4A protease, sequence (P27958 1027-1657): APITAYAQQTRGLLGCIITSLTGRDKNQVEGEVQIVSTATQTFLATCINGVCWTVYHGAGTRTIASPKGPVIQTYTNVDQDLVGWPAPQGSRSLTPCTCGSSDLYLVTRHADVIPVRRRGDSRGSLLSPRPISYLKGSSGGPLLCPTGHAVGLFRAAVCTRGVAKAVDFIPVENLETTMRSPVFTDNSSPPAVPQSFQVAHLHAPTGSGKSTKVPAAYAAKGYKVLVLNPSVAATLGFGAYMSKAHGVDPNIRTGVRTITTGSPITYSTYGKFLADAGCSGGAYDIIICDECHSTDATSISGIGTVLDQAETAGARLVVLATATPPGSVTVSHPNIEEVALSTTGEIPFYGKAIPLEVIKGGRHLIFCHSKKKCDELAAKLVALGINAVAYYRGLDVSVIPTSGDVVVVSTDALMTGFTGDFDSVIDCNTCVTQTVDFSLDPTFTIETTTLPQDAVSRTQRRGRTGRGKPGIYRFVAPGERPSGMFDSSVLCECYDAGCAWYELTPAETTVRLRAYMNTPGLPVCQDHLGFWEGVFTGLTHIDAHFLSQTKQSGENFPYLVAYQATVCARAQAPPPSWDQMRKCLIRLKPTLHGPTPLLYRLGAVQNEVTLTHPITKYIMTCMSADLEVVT
Method: The aim of this in vitro assay was to measure the inhibition of HCV NS3/4A protease complexes by the compounds of the present invention.
Inhibitors were dissolved in DMSO, sonicated for 30 sec and vortexed. The solutions were stored at −20° C. between measurements.
The final concentration of DMSO in the assay sample was adjusted to 3.3%. […] A minimum of two replicates was performed for all measurements.

[1] = test system: HCV replicons (Huh-7 luc/neo cells, NS3-NS5B regions of HCV type 1b); assay: Replicon assay (Huh-Luc cells, luciferase readout); assay type: cell-based; conditions: Hepatitis C virus, Huh-7, 72 h, read-out: EC50 (μM) Replicon assay
Source text: This model, while not a complete infection model for HCV, currently is widely accepted as an efficacious model of autonomous HCV RNA replication. […] It will be appreciated that it is important to distinguish between compounds that specifically interfere with HCV functions from those that exert cytotoxic or cytostatic effects in the HCV replicon model, and as a consequence cause a decrease in HCV RNA or linked reporter enzyme concentration. Assays are known in the field for the evaluation of cellular cytotoxicity based for example on the activity of mitochondrial enzymes using fluorogenic redox dyes such as resazurin. Furthermore, cellular counter screens exist for the evaluation of non-selective inhibition of linked reporter gene activity, such as firefly luciferase.
The compounds of formula (I) were examined for activity in the inhibition of HCV RNA replication in a cellular assay. […] In essence, the method was as follows.
The assay utilized the stably transfected cell line Huh-7 luc/neo (hereafter referred to as Huh-Luc). This cell line harbors an RNA encoding a bicistronic expression construct comprising the wild type NS3-NS5B regions of HCV type 1b translated from an internal ribosome entry site (IRES) from encephalomyocarditis virus (EMCV), preceded by a reporter portion (FfL-luciferase), and a selectable marker portion (neo^R, neomycine phosphotransferase). The construct is bordered by 5′ and 3′ NTRs (non-translated regions) from HCV type Ib. Continued culture of the replicon cells in the presence of G418 (neo^R) is dependent on the replication of the HCV RNA. The stably transfected replicon cells that express HCV RNA, which replicates autonomously and to high levels, encoding inter alia luciferase, were used for screening the antiviral compounds.
The replicon cells were plated in 384 well plates in the presence of the test and control compounds which were added in various concentrations. Following an incubation of three days, HCV replication was measured by assaying luciferase activity (using standard luciferase assay substrates and reagents and a Perkin Elmer ViewLux™ ultraHTS microplate imager). […] The inhibitory activity of the compound on luciferase activity was monitored on the Huh-Luc cells, enabling a dose-response curve for each test compound.

Structure (SMILES) | Ki (HCV NS3/4A protease) | EC50 [1]
CCOc1cc(O[C@@H]2C[C@H]3C(=O)N[C@]4(C(=O)O)C[C@H]4/C=C\CCCCN(C)C(=O)[C@@H]3C2)c2ccc(OC)cc2n1 [Compound 4, 17-[2-ethoxy-7-methoxyquinolin-4-yloxy]-13-methyl-2,14-dioxo-3,13-diazatricyclo[13.3.0.0^4,6]octadec-7-ene-4-carboxylic acid] | 0.046 µM | 4.26 µM
CCOc1cc(O[C@@H]2C[C@H]3C(=O)N[C@]4(C(=O)NS(=O)(=O)C5CC5)C[C@H]4/C=C\CCCCN(C)C(=O)[C@@H]3C2)c2ccc(OC)cc2n1 [Compound 5, N-[17-[2-ethoxy-7-methoxyquinolin-4-yloxy]-13-methyl-2,14-dioxo-3,13-diazatricyclo[13.3.0.0^4,6]octadec-7-ene-4-carbonyl](cyclopropyl)-sulfonamide] | 0.0001 µM | 0.014 µM
CCOc1cc(O[C@@H]2C[C@H]3C(=O)N[C@]4(C(=O)NS(=O)(=O)C5CC5)C[C@H]4/C=C\CCCCN(C)C(=O)[C@@H]3C2)c2ccc(OC)c(Br)c2n1 [Compound 7, N-[17-[8-bromo-2-ethoxy-7-methoxyquinolin-4-yloxy]-13-methyl-2,14-dioxo-3,13-diazatricyclo[13.3.0.0^4,6]octadec-7-ene-4-carbonyl](cyclo-propyl)sulfonamide] | 0.0001 µM | 0.0035 µM
CCOc1cc(O[C@@H]2C[C@H]3C(=O)N[C@]4(C(=O)NS(=O)(=O)C5CC5)C[C@H]4/C=C\CCCCN(C)C(=O)[C@@H]3C2)c2ccc3c(c2n1)CCO3 [Compound 9, N-[17-[2-ethoxy-8,9-dihydrofuro[2,3-h]quinolin-4-yloxy]-13-methyl-2,14-dioxo-3,13-diazatricyclo[13.3.0.0^4,6]octadec-7-ene-4-carbonyl](cyclo-propyl)sulfonamide] | 0.0008 µM | 0.029 µM
CCOc1cc(O[C@@H]2C[C@H]3C(=O)N[C@]4(C(=O)O)C[C@H]4/C=C\CCCCN(C)C(=O)[C@@H]3C2)c2cccc(Cl)c2n1 [Compound 10, 17-[8-chloro-2-ethoxyquinolin-4-yloxy]-13-methyl-2,14-dioxo-3,13-diazatricyclo[13.3.0.0^4,6]octadec-7-ene-4-carboxylic acid] | 0.0077 µM | 3.81 µM
CCOc1cc(O[C@@H]2C[C@H]3C(=O)N[C@]4(C(=O)NS(=O)(=O)C5CC5)C[C@H]4/C=C\CCCCN(C)C(=O)[C@@H]3C2)c2cccc(Cl)c2n1 [Compound 11, N-[17-[8-chloro-2-ethoxyquinolin-4-yloxy]-13-methyl-2,14-dioxo-3,13-diazatricyclo[13.3.0.0^4,6]octadec-7-ene-4-carbonyl](cyclopropyl)-sulfonamide] | 0.0005 µM | 0.0063 µM
CCOc1cc(O[C@@H]2C[C@H]3C(=O)N[C@]4(C(=O)O)C[C@H]4/C=C\CCCCN(C)C(=O)[C@@H]3C2)c2cccc(C)c2n1 [Compound 12, 17-[2-ethoxy-8-methylquinolin-4-yloxy]-13-methyl-2,14-dioxo-3,13-diazatricyclo[13.3.0.0^4,6]octadec-7-ene-4-carboxylic acid] | 0.017 µM | 7.5 µM
CCOc1cc(O[C@@H]2C[C@H]3C(=O)N[C@]4(C(=O)NS(=O)(=O)C5CC5)C[C@H]4/C=C\CCCCN(C)C(=O)[C@@H]3C2)c2cccc(C)c2n1 [Compound 13, N-[17-[2-ethoxy-8-methylquinolin-4-yloxy]-13-methyl-2,14-dioxo-3,13-diazatricyclo[13.3.0.0^4,6]octadec-7-ene-4-carbonyl](cyclopropyl)-sulfonamide] | 0.0001 µM | 0.014 µM
CCOc1cc(O[C@@H]2C[C@H]3C(=O)N[C@]4(C(=O)O)C[C@H]4/C=C\CCCCN(C)C(=O)[C@@H]3C2)c2ccc3c(c2n1)OCO3 [Compound 14, 17-[8-ethoxy[1,3]dioxolo[4,5-h]quinolin-6-yloxy]-13-methyl-2,14-dioxo-3,13-diazatricyclo[13.3.0.0^4,6]octadec-7-ene-4-carboxylic acid] | 0.058 µM | 3.3 µM
CCOc1cc(O[C@@H]2C[C@H]3C(=O)N[C@]4(C(=O)NS(=O)(=O)C5CC5)C[C@H]4/C=C\CCCCN(C)C(=O)[C@@H]3C2)c2ccc3c(c2n1)OCO3 [Compound 15, N-[17-[8-ethoxy[1,3]dioxolo[4,5-h]quinolin-6-yloxy]-13-methyl-2,14-dioxo-3,13-diazatricyclo[13.3.0.0^4,6]octadec-7-ene-4-carbonyl]-(cyclo-propyl)sulfonamide] | 0.0002 µM | 0.0035 µM
